Source: patent US6552015B2, “Azabicycloalkane derivatives and therapeutic uses thereof” (Pfizer Inc., priority 2000, dated 2003)
Structures can show the parent of a compound that is named as a salt.

`Cc1ccc2[nH]c(=O)n(CCCN3C4CCC3CN(c3ccc(Cl)cc3)C4)c(=O)c2c1` (as salt: hydrochloride) gave a melting point greater than 300 °C. Compound `O=c1[nH]c2c(Cl)cccc2c(=O)n1CCCN1C2CCC1CN(c1ccc(Cl)cc1)C2` (as salt: maleate) has a melting point of 186 to 188 °C. Work on `Cc1ccc(N2CC3CCC(C2)N3CCCn2c(=O)[nH]c3c(Cl)cccc3c2=O)c(C)c1` (as salt: maleate) yielded a melting point of 217 to 219 °C. Compound `O=c1[nH]c2c(Cl)cccc2c(=O)n1CCCN1C2CCC1CN(c1ccc(Cl)c(Cl)c1)C2` (as salt: maleate) has a melting point of 205 to 207 °C. For `O=c1[nH]c2ccccc2c(=O)n1CCCN1C2CCC1CN(c1ccc(Cl)c(Cl)c1)C2` (as salt: maleate), the melting point was 105 to 108 °C (dec.). Work on `O=c1[nH]c2c(Cl)cccc2c(=O)n1CCCN1C2CCC1CN(c1ccc(F)cc1)C2` (as salt: maleate) yielded a melting point of 173 to 175 °C. `O=c1[nH]c2ccccc2c(=O)n1CCCN1C2CCC1CN(c1ccc(F)cc1)C2` (as salt: maleate) gave a melting point of 70 to 74 °C. `O=c1[nH]c2c(Cl)cccc2c(=O)n1CCCN1C2CCC1CN(c1ccc(C(F)(F)F)cc1)C2` (as salt: maleate) showed a melting point of 205 to 207 °C. Work on `O=c1[nH]c2c(Cl)cccc2c(=O)n1CCCCN1C2CCC1CN(c1ccc(Cl)cc1)C2` (as salt: maleate) yielded a melting point of 235 to 238 °C. `O=c1[nH]c2ccccc2c(=O)n1CCCCN1C2CCC1CN(c1ccc(Cl)cc1)C2` (as salt: maleate) gave a melting point of 187 to 189 °C. In the case of `Cc1ccc(N2CC3CCC2CN3CCCn2c(=O)[nH]c3c(Cl)cccc3c2=O)c(C)c1` (stereo not shown) (as salt: maleate), the melting point is reported as 149 to 151 °C. With `O=c1[nH]c2c(Cl)cccc2c(=O)n1CCCN1CC2CC1CN2c1ccc(Cl)cc1` (stereo not shown) (as salt: maleate) [Example 41, 8-CHLORO-3-{3-[5-(4-CHLORO-PHENYL)-2,5-DIAZA-BICYCLO[2.2.1]HEPT-2-YL]-PROPYL}-1H-QUINAZOLINE-2,4-DIONE] the melting point was 205 to 207 °C. Compound `O=c1[nH]c2c(Cl)cccc2c(=O)n1CCCN1CC2CC1CN2c1cccc(F)c1` (stereo not shown) (as salt: maleate) [Example 42, 8-CHLORO-3-{3-[5-(3-FLUORO-PHENYL)-2,5-DIAZA-BICYCLO[2.2.1]HEPT-2-YL]-PROPYL}-1H-QUINAZOLINE-2,4-DIONE] has a melting point of 168 to 170 °C. In the case of `O=c1[nH]c2c(Cl)cccc2c(=O)n1CCCN1CC2CCC1CN2c1ccc(F)cc1` (stereo not shown) (as salt: maleate) [Example 46, 8-CHLORO-3-{3-[5-(4-FLUORO-PHENYL)-2,5-DIAZA-BICYCLO[2.2.2]OCT-2-YL]-PROPYL}-1H-QUINAZOLINE-2,4-DIONE], the melting point is reported as 186 to 188 °C. For `O=c1[nH]c2c(Cl)cccc2c(=O)n1CCCN1CC2CCC1CN2c1ccc(Cl)c(Cl)c1` (stereo not shown) (as salt: maleate) [Example 48, 8-CHLORO-3-{3-[5-(3,4-DICHLORO-PHENYL)-2,5-DIAZA-BICYCLO[2.2.2]OCT-2-YL]-PROPYL}-1H-QUINAZOLINE-2,4-DIONE], the melting point was 68 to 73 °C (dec.). With `O=c1[nH]c2ccccc2c(=O)n1CCCN1CC2CCC1CN2c1ccc(F)cc1` (stereo not shown) (as salt: maleate) [Example 49, 3-{3-[5-(4-FLUORO-PHENYL)-2,5-DIAZA-BICYCLO[2.2.2]OCT-2-YL]-PROPYL}-1H-QUINAZOLINE-2,4-DIONE] the melting point was 95 to 98 °C (dec.).
